“Also recorded” adds a separate entry of the source.
Key:
Interferon-gamma (IFN-γ) = Interferon-gamma (IFN-γ) production in cell culture supernatants by ELISA, lymphocytes of mice immunized with adjuvanted MUC1 liposomal vaccine; format: in vivo, C57-Black mice; settings: for Interferon-gamma (IFN-γ, pg/ml): s.c. liposomal vaccine 40 μg BP1-148 + 20 μg Lipid-A analog per dose, nine days after injection; for interferon-gamma production: in words, liposomal vaccine formulations in mice, FIG. 31-FIG. 33
Protocol: (§1) Typically, the liposomal formulation was composed of 400 μg of MUC1-based lipopeptide BP1-148, H2N-[…](Pal)G-OH, 200 μg of Lipid-A analog, 6.94 mg of cholesterol, 1.46 mg of dimyristoyl phosphatidylglycerol ([…]) and 11.62 mg of dipalmitoyl phosphatidylcholine (DPPC) per 1 ml of saline (0.9% NaCl solution).
(§2) The liposomal constructs were formulated by first dissolving the phospholipids, cholesterol and Lipid A analog in tert-butanol at about 53° C. Lipopeptide and water (5%, v/v) were then added to the tert-butanol solution. The resulting clear 95% tert-butanol solution was injected into about 4 volumes of rapidly stirred water at about 50° C., using a glass syringe with an 18-gauge needle. The small unilamellar vesicles (SUV) formed in this process were cooled, sterilized by filtration through a 0.22 μm membrane filter, filled into vials and lyophilized. The dry powder was re-hydrated with sterile saline before injection, resulting in the formation of multilamellar large vesicles (MLV). The liposomes formed are used to immunize mice.
(§3) Groups of C57-Black mice were immunized subcutaneously with the liposomal vaccine containing 40 μg of MUC1-based lipopeptide BP1-148 (FIG. 34), which has the peptide sequence of H2N-[…](Pal) G-OH, and 20 μg of Lipid-A analog per dose. Nine days after vaccine injection mice were sacrificed and lymphocytes were taken from the draining lymph nodes (local response) or from the spleens (systemic response) to determine the immune response in each group. The lymphocytes taken from immunized mice were incubated in in vitro cultures in the presence of MUC1-based boosting antigen BP1-151, which has the peptide sequence H2N-[…]-OH.
Interferon-gamma (IFN-γ) levels were determined in the cell culture supernatants using enzyme-linked immunoabsorbent assay (ELISA). 96-Well plates were coated with 50 μl of catcher Mabs in 50 μl of R4.6AZ at 37° C. for 30 min. The plates were then washed and incubated with test samples for 45 min. After two washes the second biotinylated antibody, XMG1.2 was added. After washing, peroxidase-conjugated streptavidin was added and incubated again for 30 min. Finally, 100 μl of horseradish peroxidase (HRPO) substrate solution was added. The optical density was measured with a Thermomax ELISA reader at 405 nm wavelength in kinetic mode for 10 min. The interferon-gamma (IFN-γ) levels corresponding to various Lipid-A analogs are shown in Table 1-Table 3 and FIG. 31-FIG. 33.

T-cell = T-cell proliferation (3H thymidine incorporation) of lymph node lymphocytes from mice immunized with MUC1-based liposomal vaccine adjuvanted with Lipid-A analog; format: in vivo, C57-Black mice; settings: for T-cell-Proliferation (CPM): s.c. liposomal vaccine 40 μg BP1-148 + 20 μg Lipid-A analog per dose, nine days after injection, boosting antigen BP1-151; for T-cell blastogenesis: in words, liposomal vaccine formulations in mice, FIG. 31-FIG. 33
Protocol: as §1, §2, §3
T-cell proliferation was evaluated using a standard ^3H thymidine incorporation assay. Briefly, nylon wool passed inguinal lymph node lymphocytes from each mouse were added to a culture containing 106 native mitomycin C treated syngeneic splenocytes, which serves as antigen presenting cells (APCs). To each well 20 μg of MUC1-based boosting peptide BP1-151, H2N-[…]-OH (single letter amino acid code, Table 8), was added for positive control; and cultures containing no antigen or peptide BP1-72, which has the peptide sequence H2N-[…]-OH, were used as negative control. The culture was incubated for 72 h in a total volume of 250 μl well, followed by adding 1 μCi of ^3H-thymidine in a volume of 50 μl. The plates were incubated for an additional 18-20 h. Cells were harvested and [^3H]dTh incorporation was measured by liquid scintillation counter. T-cell proliferation results corresponding to various liposomal vaccines adjuvanted, with different Lipid-A analogs are summarized in Tables 1-Table 3 and FIG. 31-FIG. 33.

[1] = test system: immune response to MUC1-based lipopeptide BP1-148; assay: Adjuvanticity of Lipid-A analogs in liposomal vaccine with MUC1 lipopeptide BP1-148 (T-cell blastogenesis and IFN-γ production); format: in vivo, mice; settings: in words; liposomal formulations with BP1-148 in mice, FIGS. 31-33
Description: Liposome formulations have been used to evaluate the adjuvant properties of various synthetic Lipid-A structures and the immune responses to a synthetic lipopeptide antigen BP-148, H2N-[…](Pal)G-OH (FIG. 34), a modified 25-amino-acid sequence derived from tumor-associated MUC1 mucin. The commercially available Lipid-A product, which is currently under clinical evaluation as an adjuvant for vaccine programs, was used for comparison. The natural Lipid-A product, purchased from AVANTI, contained a mixture of Lipid-A analogs extracted from Salmonella bacterial cell wall and is designated as Natural Lipid-A in this invention.
Thus, the liposomal formulations containing the synthetic lipopeptide antigen, BP1-148, and Lipid-A analogs 33, 48, 54, 58, 70, 77, 86, 94, 102, 104 or Natural Lipid-A, were used to immunize mice to measure their immune response in terms of T-cell blastogenesis and interferon-gamma (IFN-γ) production. The compounds were tested in three groups at different time and their preliminary results are shown separately in FIGS. 31-33. As the variations are attributed to different factors such as animal groups and experimental factors, the data from different groups will not be compared.
as §3

**Q.** How did the “Interferon-gamma (IFN-γ, pg/ml)” value (Interferon-gamma (IFN-γ); Table 1, first test group) turn out when CCCCCCCCCCCCCCCC(=O)O[C@H](CCCCCCCCCCC)CC(=O)N[C@H]1C(O)O[C@H](CO[C@@H]2O[C@H](CO)[C@@H](OP(=O)(O)O)[C@H](OC(=O)C[C@@H](CCCCCCCCCCC)OC(=O)CCCCCCCCCCCCC)[C@H]2NC(=O)C[C@@H](CCCCCCCCCCC)OC(=O)CCCCCCCCCCC)[C@@H](O)[C@@H]1O (stereo partly drawn) [Compound 48, 2-Deoxy-6-O-{2-deoxy-2-[(3R)-3-dodecanoyloxytetradecanamido]-4-O-phosphono-3-O-[(3R)-3-tetradecanoyloxytetradecanoyl]-β-D-glucopyranosyl}-2-[(3R)-3-hexadecanoyloxytetradecanamido]-α/β-D-glucopyranose] was run?
**A.** 2430 pg/mL

**Q.** And the “Interferon-gamma (IFN-γ, pg/ml)” value (Interferon-gamma (IFN-γ); Table 2, second test group)?
**A.** 18261 pg/mL

**Q.** What about the interferon-gamma production (Interferon-gamma (IFN-γ)) of the same compound?
**A.** high levels of interferon-gamma

**Q.** And the “T-cell-Proliferation (CPM)” value (T-cell; Table 1, first test group)?
**A.** 14112 CPM

**Q.** And the “T-cell-Proliferation (CPM)” value (T-cell; Table 2, second test group)?
**A.** 28149 CPM

**Q.** What about the T-cell blastogenesis (T-cell) of the same compound?
**A.** significant T-cell blastogenesis

**Q.** What about the “adjuvant activity compared to Natural Lipid-A (Lipid-A preparation of bacterial origin)” value [1] of the same compound?
**A.** as effective

**Q.** Which “Interferon-gamma (IFN-γ, pg/ml)” value (Interferon-gamma (IFN-γ); Table 2, second test group) does the source give for CCCCCCCCCCCCCC(=O)O[C@H](CCCCCCCCCCC)CC(=O)N[C@H]1[C@H](OC[C@H]2OC(O)[C@H](NC(=O)C[C@@H](CCCCCCCCCCC)OC(=O)CCCCCCCCCCCCC)[C@@H](O)[C@@H]2O)O[C@H](CO)[C@@H](OP(=O)(O)O)[C@@H]1OC(=O)C[C@@H](CCCCCCCCCCC)OC(=O)CCCCCCCCCCCCC (stereo partly drawn) [Compound 54, 2-Deoxy-6-O-{2-deoxy-4-O-phosphono-2-[(3R)-3-tetradecanoyloxytetradecanamido]-3-O-[(3R)-3-tetradecanoyloxytetradecanoyl]-β-D-glucopyranosyl}-2-[(3R)-3-tetradecanoyloxytetradecanamido]-α/β-D-glucopyranose] here?
**A.** 36166 pg/mL

**Q.** And the interferon-gamma production (Interferon-gamma (IFN-γ))?
**A.** high levels of interferon-gamma

**Q.** And the “T-cell-Proliferation (CPM)” value (T-cell; Table 2, second test group)?
**A.** 32976 CPM

**Q.** And the T-cell blastogenesis (T-cell)?
**A.** significant T-cell blastogenesis

**Q.** What about the “adjuvant activity compared to Natural Lipid-A (Lipid-A preparation of bacterial origin)” value [1] of the same compound?
**A.** as effective

**Q.** Which results are given for CCCCCCCCCCCCCC(=O)O[C@H](CCCCCCCCCCC)CC(=O)N[C@H]1[C@H](OC[C@H]2OC(O)[C@H](NC(=O)C[C@@H](CCCCCCCCCCC)OC(=O)CCCCCCCCCCCCC)[C@@H](OCCC)[C@@H]2O)O[C@H](CO)[C@@H](OP(=O)(O)O)[C@@H]1OC(=O)C[C@@H](CCCCCCCCCCC)OC(=O)CCCCCCCCCCCCC (stereo partly drawn) [Compound 70, 2-Deoxy-6-O-{2-deoxy-2-[(3R)-3-tetradecanoyloxytetradecanamido]-4-O-phosphono-3-O-[(3R)-3-tetradecanoyloxytetradecanoyl]-β-D-glucopyranosyl}-3-O-propyl-2-[(3R)-3-tetradecanoyloxytetradecanamido]-α/β-D-glucopyranose]?
**A.** Interferon-gamma (IFN-γ, pg/ml) (Interferon-gamma (IFN-γ); Table 2, second test group): 17321 pg/mL; interferon-gamma production (Interferon-gamma (IFN-γ)): high levels of interferon-gamma; T-cell-Proliferation (CPM) (T-cell; Table 2, second test group): 25034 CPM; T-cell blastogenesis (T-cell): significant T-cell blastogenesis; adjuvant activity compared to Natural Lipid-A (Lipid-A preparation of bacterial origin) [1]: as effective

**Q.** Which “Interferon-gamma (IFN-γ, pg/ml)” value (Interferon-gamma (IFN-γ); Table 3, third test group) does the source give for CCCCCCCCCCCCO[C@H](CCCCCCCCCCC)CC(=O)N[C@H]1[C@H](OC[C@H]2OC(O)[C@H](NC(=O)C[C@@H](CCCCCCCCCCC)OCCCCCCCCCCCC)[C@@H](OC(=O)C[C@H](O)CCCCCCCCCCC)[C@@H]2O)O[C@H](CO)[C@@H](OP(=O)(O)O)[C@@H]1OC(=O)C[C@@H](CCCCCCCCCCC)OCCCCCCCCCCCC (stereo partly drawn) [Compound 94, 2-Deoxy-6-O-{2-deoxy-4-O-phosphono-2-[(3R)-3-dodecyloxytetradecanamido]-3-O-[(3R)-3-dodecyloxytetradecanoyl]-β-D-glucopyranosyl}-3-O-[(3R)-3-hydroxytetradecanoyl]-2-[(3R)-3-dodecyloxytetradecanamido]-α/β-D-glucopyranose] here?
**A.** 2150 pg/mL

**Q.** What about the interferon-gamma production (Interferon-gamma (IFN-γ)) of the same compound?
**A.** low

**Q.** What about the “T-cell-Proliferation (CPM)” value (T-cell; Table 3, third test group) of the same compound?
**A.** 10882 CPM

**Q.** What about the T-cell blastogenesis (T-cell) of the same compound?
**A.** significant T-cell blastogenesis

**Q.** With CCCCCCCCCCCCO[C@H](CCCCCCCCCCC)CC(=O)N[C@H]1[C@H](OC[C@H]2OC(O)[C@H](NC(=O)C[C@@H](CCCCCCCCCCC)OC(=O)C[C@@H](CCCCCCCCCCC)OCCCCCCCCCCCC)[C@@H](O)[C@@H]2O)O[C@H](CO)[C@@H](OP(=O)(O)O)[C@@H]1OC(=O)C[C@@H](CCCCCCCCCCC)OCCCCCCCCCCCC (stereo partly drawn) [Compound 102, 2-Deoxy-6-O-{2-deoxy-4-O-phosphono-2-[(3R)-3-dodecyloxytetradecanamido]-3-O-[(3R)-3-dodecyloxytetradecanoyl]-β-D-glucopyranosyl}-2-{(3R)-3-[(3R)-3-dodecyloxytetradecanoyloxy]-tetradecanamido}-α/β-D-glucopyranose] as the compound, how does the “Interferon-gamma (IFN-γ, pg/ml)” value (Interferon-gamma (IFN-γ); Table 3, third test group) read?
**A.** 10587 pg/mL

**Q.** And the interferon-gamma production (Interferon-gamma (IFN-γ))?
**A.** high levels of interferon-gamma

**Q.** And the “T-cell-Proliferation (CPM)” value (T-cell; Table 3, third test group)?
**A.** 13389 CPM

**Q.** And the T-cell blastogenesis (T-cell)?
**A.** significant T-cell blastogenesis

**Q.** What about the “adjuvant activity compared to Natural Lipid-A (Lipid-A preparation of bacterial origin)” value [1] of the same compound?
**A.** similar; also recorded: as effective

**Q.** Which “Interferon-gamma (IFN-γ, pg/ml)” value (Interferon-gamma (IFN-γ); Table 3, third test group) does the source give for CCCCCCCCCCCCO[C@H](CCCCCCCCCCC)CC(=O)O[C@H](CCCCCCCCCCC)CC(=O)N[C@H]1C(O)O[C@H](CO[C@@H]2O[C@H](CO)[C@@H](OP(=O)(O)O)[C@H](OC(=O)C[C@@H](CCCCCCCCCCC)OCCCCCCCCCCCC)[C@H]2NC(=O)C[C@H](O)CCCCCCCCCCC)[C@@H](O)[C@@H]1O (stereo partly drawn) [Compound 104, 2-Deoxy-6-O-{2-deoxy-4-O-phosphono-2-[(3R)-3-hydroxytetradecanamido]-3-O-[(3R)-3-dodecyloxytetradecanoyl]-β-D-glucopyranosyl}-2-{(3R)-3-[(3R)-3-dodecyloxytetradecanoyloxy]-tetradecanamido}-α/β-D-glucopyranose] here?
**A.** 14669 pg/mL

**Q.** What about the interferon-gamma production (Interferon-gamma (IFN-γ)) of the same compound?
**A.** high levels of interferon-gamma

**Q.** What about the “T-cell-Proliferation (CPM)” value (T-cell; Table 3, third test group) of the same compound?
**A.** 12635 CPM

**Q.** And the T-cell blastogenesis (T-cell)?
**A.** significant T-cell blastogenesis

**Q.** What about the “adjuvant activity compared to Natural Lipid-A (Lipid-A preparation of bacterial origin)” value [1] of the same compound?
**A.** similar; also recorded: as effective
